# Like-named read-outs stand apart in the source and are kept apart here.
# Experiments:
# [1] = Cardiac conduction (QTcF) in healthy adult subjects; type: in vivo, human
# [2] = Part 1 (SAD): urine pharmacokinetics (amount excreted, renal clearance) after a single oral dose of KAR5585; type: in vivo, human; details: for CL renal: human
# Experimental: Renal clearance of KAR5417 was calculated from the area under the plasma time concentration curve (AUC0-96) for KAR5417 and the amount of KAR5417 recovered in urine (Table 21).
# clinical = details: human; for Cmax at 1 day / Cmax at 14 day: 100 mg
# Text: Food effect was to be evaluated in Part 1, Period 2.
# Pharmacokinetic data were to be summarized descriptively.
# [3] = KAR5585 in urine, 100 mg KAR5585 single oral dose, mean
# [4] = KAR5585 in urine, 200 mg KAR5585 single oral dose, mean
# [5] = KAR5585 in urine, 400 mg (Fasted) KAR5585 single oral dose, mean
# [6] = KAR5585 in urine, 400 mg (Fed) KAR5585 single oral dose, mean
# [7] = KAR5585 in urine, 700 mg KAR5585 single oral dose, mean
structure (smiles),measurement,setting,value
"CCOC(=O)[C@@H]1CC2(CCN(c3cc(O[C@H](c4ccc(Cl)cc4-c4ccccc4)C(F)(F)F)nc(N)n3)CC2)CN1 [KAR5585, (S)-ethyl 8-(2-amino-6-((R)-1-(5-chloro-[1,1′-biphenyl]-2-yl)-2,2,2-trifluoroethoxy)pyrimidin-4-yl)-2,8-diazaspiro[4.5]decane-3-carboxylate]",tendency to increase QTcF in a dose-dependent manner,[1],Neither the prodrug (KAR5585) nor the active drug (KAR5417) showed any tendency to increase QTcF in a dose-dependent manner
same,Amount Excreted (Ae),[2]; [3],0 µg
same,Total Excreted (%),[2]; [3],0%
same,Amount Excreted (Ae),[2]; [4],0 µg
same,Total Excreted (%),[2]; [4],0%
same,Amount Excreted (Ae),[2]; [5],13.8 µg
same,Total Excreted (%),[2]; [5],0.00346%
same,Amount Excreted (Ae),[2]; [6],0 µg
same,Total Excreted (%),[2]; [6],0%
same,Amount Excreted (Ae),[2]; [7],0 µg
same,Total Excreted (%),[2]; [7],0%
same,Amount Excreted (Ae),"[2]; KAR5585 in urine, 2000 mg KAR5585 single oral dose, mean",1.50 µg
same,CL renal,"[2]; urine and plasma, po, 2000 mg, KAR5585, 2000 mg KAR5585 single oral dose, mean, read-out: CLR (converted)",0.0383 mL/min
same,half-life,"clinical; in vivo, 400 mg",3.14 h
same,Cmax,"clinical; in vivo, 400 mg/dose",110 ng/mL
same,Cmax at 1 day,"clinical; plasma, oral",16.7 ng/mL
same,Cmax at 14 day,"clinical; plasma, oral",21.3 ng/mL
same,AUC(0-inf),"clinical; plasma, oral, 100 mg/dose",54.1 ng·h/mL
same,AUC(0-t),"clinical; plasma, oral, 100 mg/dose",50.8 ng·h/mL
same,Cmax,"clinical; plasma, oral, 100 mg/dose",15.8 ng/mL
same,Tmax,"clinical; plasma, oral, 100 mg/dose",1 h
same,Vd/F,"clinical; plasma, oral, 100 mg/dose",4620 L
same,half-life,"clinical; plasma, oral, 100 mg/dose",1.73 h
same,AUC(0-inf),"clinical; plasma, oral, 400 mg",305 ng·h/mL
same,Tmax,"clinical; plasma, oral, 400 mg",2 h
same,AUC(0-inf),"clinical; plasma, oral, 400 mg/dose",482 ng·h/mL
same,Cmax,"clinical; plasma, oral, 400 mg/dose",89 ng/mL
same,concentration at 12 h,"clinical; plasma, oral, 400 mg/dose",11.4 ng/mL
same,half-life,"clinical; plasma, oral, 400 mg/dose",6.45 h
"Nc1nc(O[C@H](c2ccc(Cl)cc2-c2ccccc2)C(F)(F)F)cc(N2CCC3(CC2)CN[C@H](C(=O)O)C3)n1 [KAR5417, (S)-8-(2-amino-6-((R)-1-(5-chloro-[1,1T-biphenyl]-2-yl)-2,2,2-trifluoroeth-oxy)pyrimidin-4-yl)-2,8-diazaspiro[4.5]decane-3-carboxylic acid]",tendency to increase QTcF in a dose-dependent manner,[1],Neither the prodrug (KAR5585) nor the active drug (KAR5417) showed any tendency to increase QTcF in a dose-dependent manner
same,highest amount excreted in urine,[2]; 400 mg fed Cohort (Cohort 3B),0.331 % of the dose
same,Amount Excreted (Ae),"[2]; KAR5417 in urine, 100 mg KAR5585 single oral dose, mean",233 µg
same,Total Excreted (%),"[2]; KAR5417 in urine, 100 mg KAR5585 single oral dose, mean, assuming complete conversion of KAR5585 to KAR5417",0.245%
same,Amount Excreted (Ae),"[2]; KAR5417 in urine, 200 mg KAR5585 single oral dose, mean",211 µg
same,Total Excreted (%),"[2]; KAR5417 in urine, 200 mg KAR5585 single oral dose, mean, assuming complete conversion of KAR5585 to KAR5417",0.111%
same,Amount Excreted (Ae),"[2]; KAR5417 in urine, 400 mg (fasted) KAR5585 single oral dose, mean",769 µg
same,Total Excreted (%),"[2]; KAR5417 in urine, 400 mg (fasted) KAR5585 single oral dose, mean, assuming complete conversion of KAR5585 to KAR5417",0.202%
same,Amount Excreted (Ae),"[2]; KAR5417 in urine, 400 mg (fed) KAR5585 single oral dose, mean",1260 µg
same,Total Excreted (%),"[2]; KAR5417 in urine, 400 mg (fed) KAR5585 single oral dose, mean, assuming complete conversion of KAR5585 to KAR5417",0.331%
same,Amount Excreted (Ae),"[2]; KAR5417 in urine, 700 mg KAR5585 single oral dose, mean",998 µg
same,Total Excreted (%),"[2]; KAR5417 in urine, 700 mg KAR5585 single oral dose, mean, assuming complete conversion of KAR5585 to KAR5417",0.150%
same,Amount Excreted (Ae),"[2]; KAR5417 in urine, 1200 mg KAR5585 single oral dose, mean",1170 µg
same,Total Excreted (%),"[2]; KAR5417 in urine, 1200 mg KAR5585 single oral dose, mean, assuming complete conversion of KAR5585 to KAR5417",0.102%
same,Amount Excreted (Ae),"[2]; KAR5417 in urine, 2000 mg KAR5585 single oral dose, mean",2130 µg
same,Total Excreted (%),"[2]; KAR5417 in urine, 2000 mg KAR5585 single oral dose, mean, assuming complete conversion of KAR5585 to KAR5417",0.112%
same,CL renal,"[2]; plasma and urine, oral, from plasma AUC0-96 and amount recovered in urine, read-out: Renal clearance, range across doses",2.62 to 4.93 mL/min
same,CL renal,"[2]; urine and plasma, po, 100 mg, KAR5417, 100 mg KAR5585 single oral dose, mean, read-out: CLR (converted)",4.93 mL/min
same,CL renal,"[2]; urine and plasma, po, 200 mg, KAR5417, 200 mg KAR5585 single oral dose, mean, read-out: CLR (converted)",2.67 mL/min
same,CL renal,"[2]; urine and plasma, po, 400 mg, KAR5417, 400 mg (fasted) KAR5585 single oral dose, mean, read-out: CLR (converted)",3.62 mL/min
same,CL renal,"[2]; urine and plasma, po, 400 mg, KAR5417, 400 mg (fed) KAR5585 single oral dose, mean, read-out: CLR (converted)",3.18 mL/min
same,CL renal,"[2]; urine and plasma, po, 700 mg, KAR5417, 700 mg KAR5585 single oral dose, mean, read-out: CLR (converted)",3.18 mL/min
same,CL renal,"[2]; urine and plasma, po, 1200 mg, KAR5417, 1200 mg KAR5585 single oral dose, mean, read-out: CLR (converted)",2.62 mL/min
same,CL renal,"[2]; urine and plasma, po, 2000 mg, KAR5417, 2000 mg KAR5585 single oral dose, mean, read-out: CLR (converted)",3.43 mL/min
same,Cmax at 1 day,"clinical; plasma, oral",121 ng/mL
same,Cmax at 14 day,"clinical; plasma, oral",194 ng/mL

# From US20240041877A1, “DOSAGE REGIME AND METHOD FOR TREATING PULMONARY ARTERIAL HYPERTENSION” (Altavant Sciences GmbH, priority 2019, published 2024)
